Data as given in US20240115557A1, “INHIBITORS OF RNA-GUIDED NUCLEASES AND USES THEREOF” (The Brigham and Women's Hospital, Inc., priority 2022, published 2024).

How the values were obtained:
[1] = Plasma stability assay; assay type: in vitro ADME; conditions: 2 μM, 50% mouse plasma in PBS, 2 h
Experimental: The stability of the compound in mouse plasma was assessed following a reported protocol.^50 BRD7586 (2 μM) was incubated with 50% mouse plasma (K2 EDTA, BioIVT) in PBS for 2 h in duplicate. Propantheline was included as a control.

[2] = target: SpCas9:gRNA complex (Streptococcus pyogenes serotype M1, UniProt Q99ZW2); assay: STD NMR binding assay; conditions: 20 μM compound, 5 μM SpCas9:gRNA
Experimental: All samples were prepared with 20 μM of BRD7586 in a 20 mM […] buffer (pH 7.4) in D2O with or without 5 μM of SpCas9:gRNA in a 3 mm NMR tube. Experiments were performed on a 600 MHz (^19F: 564.71 MHz) Bruker AVANCE III NMR spectrometer equipped with a 5 mm QCI-F CryoProbe and a SampleJet for automated sample handling. To acquire the spectra, a standard one-pulse STD experiment with WALTZ-16 for proton decoupling during acquisition, a 5 s recycle delay, and 256 scans were used. All spectra were recorded at 280 K. NMR data were apodized with a 1-Hz exponential function prior to Fourier transformation. All spectra were baseline corrected, and peak widths and intensities were extracted using the automated line-fitting feature provided with the MNova software package.

[3] = target: T1, SpCas9 (Streptococcus pyogenes serotype M1, UniProt Q99ZW2); assay: Strand displacement assay (SDA) / cumulative activity assay (CAA), SpCas9 primary screen; assay type: biochemical; conditions: result in words
Summary of the method: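 SpCas9:gRNA RNP in 20 mM Tris-HCl pH 7.5, 100 mM KCl, 5 mM MgCl2 was used at 10 nM (2× stock) with Alexa Fluor 647-labelled substrate and excess quencher strand (1 nM and 5 nM, 2× stocks). Fluorescence was read after 2.5 h at 37 °C, where cleavage lets the quencher strand anneal.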

[4] = target: T1, SpCas9; assay: In vitro DNA cleavage assay, SpCas9; assay type: biochemical; conditions: 0-40 μM
Experimental: First, Cas9:gRNA complex (30 nM Cas9 (NEB) and 36 nM eGFP targeting gRNA) was formed by mixing each component at a 1:1.2 (Cas9:gRNA) molar ratio and incubating at room temperature for 10 minutes. BRD7586 at doses 0, 5, 10, 20, 30, 40 μM were incubated with Cas9:gRNA complex at 37° C. for 30 minutes at 700 rpm. PCR amplified target eGFP DNA (2 nM) was added after 30 minutes of compound incubation and the mixture was incubated at 37° C. for 30 minutes at 700 rpm. Proteinase K (5 μL) was added and incubated at 37° C. for 30 minutes at 700 rpm to digest the Cas9. The resulting mixtures were purified PCR mini elute kit (Qiagen) and the eluted DNA was quantified by Qubit HS DNA quantification method. Equal amounts of DNA samples were run on a 1% agarose E-gels (invitrogen) for 7 minutes. Images were obtained by an Azure 600 (Azure Biosystem) and quantification of band intensities were performed by ImageJ based analysis.

T1 sequence (Q99ZW2 whole entry): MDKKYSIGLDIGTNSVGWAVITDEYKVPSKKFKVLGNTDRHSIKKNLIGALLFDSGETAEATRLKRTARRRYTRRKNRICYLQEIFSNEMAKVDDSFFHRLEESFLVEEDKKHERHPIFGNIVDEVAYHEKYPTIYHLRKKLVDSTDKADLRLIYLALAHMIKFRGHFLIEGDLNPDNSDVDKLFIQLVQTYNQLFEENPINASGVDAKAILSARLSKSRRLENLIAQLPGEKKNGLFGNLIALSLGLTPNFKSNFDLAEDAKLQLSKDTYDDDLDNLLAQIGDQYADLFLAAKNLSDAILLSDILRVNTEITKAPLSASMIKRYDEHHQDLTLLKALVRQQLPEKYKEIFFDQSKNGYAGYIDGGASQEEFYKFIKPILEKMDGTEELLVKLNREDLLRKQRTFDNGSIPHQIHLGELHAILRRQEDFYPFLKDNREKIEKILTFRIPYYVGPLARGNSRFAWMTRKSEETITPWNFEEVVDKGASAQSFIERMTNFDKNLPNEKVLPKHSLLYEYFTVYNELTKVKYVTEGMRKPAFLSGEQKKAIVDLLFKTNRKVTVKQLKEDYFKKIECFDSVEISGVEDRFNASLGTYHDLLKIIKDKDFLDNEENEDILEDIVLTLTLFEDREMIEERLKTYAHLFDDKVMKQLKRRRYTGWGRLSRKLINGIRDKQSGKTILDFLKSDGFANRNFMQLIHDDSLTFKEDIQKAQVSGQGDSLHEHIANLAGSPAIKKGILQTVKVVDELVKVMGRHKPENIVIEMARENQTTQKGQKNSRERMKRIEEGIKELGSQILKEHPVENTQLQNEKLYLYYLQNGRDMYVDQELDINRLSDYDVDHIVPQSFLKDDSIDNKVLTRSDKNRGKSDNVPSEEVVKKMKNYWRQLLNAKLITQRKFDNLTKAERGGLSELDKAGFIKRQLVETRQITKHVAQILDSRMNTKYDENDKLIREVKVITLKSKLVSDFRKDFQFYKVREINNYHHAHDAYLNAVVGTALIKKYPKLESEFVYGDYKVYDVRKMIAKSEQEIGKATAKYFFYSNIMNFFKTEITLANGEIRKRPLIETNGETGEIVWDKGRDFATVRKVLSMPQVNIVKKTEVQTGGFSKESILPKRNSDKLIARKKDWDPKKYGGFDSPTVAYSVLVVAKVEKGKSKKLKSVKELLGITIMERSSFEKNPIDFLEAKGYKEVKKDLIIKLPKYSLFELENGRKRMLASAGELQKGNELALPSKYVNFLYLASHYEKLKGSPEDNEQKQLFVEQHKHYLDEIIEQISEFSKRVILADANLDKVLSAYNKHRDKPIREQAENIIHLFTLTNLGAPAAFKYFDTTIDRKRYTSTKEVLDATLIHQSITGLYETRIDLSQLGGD
Chain of SpCas9:gRNA complex (Q99ZW2 whole entry, one chain of several): as the sequence (Q99ZW2 whole entry) above

SMILES: O=C(CCS(=O)(=O)c1ccc(Cl)cc1)Nc1nc(-c2ccncc2)cs1 [BRD7586]
- Stability in mouse plasma [1]: 40%
- STD NMR signal [2]: observed the STD NMR signal from marked protons
- Inhibition of SpCas9 in CAA [3]: dose-dependent inhibition
- Inhibition of SpCas9 in in vitro DNA cleavage assay [4]: dose-dependent inhibition
